From ChEMBL document CHEMBL1201862, “PubChem BioAssay data set” (2004) come the findings set out here.

Among the test systems are HCC 2998; UACC-257; K562; UO-31; ACHN; CCRF-CEM; SF-295; M19-MEL; OVCAR-4; A549; OVCAR-5; NCI-H460; NCI-H23; NCI-H522; SNB-75; M14; T47D; MCF7; PC-3; MDA-MB-231.
Experiment in all cases: growth of human tumour cells (NCI), 48 h

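Cultured in 96-well plates, cells were exposed to test compound for 48 hours across five concentrations. GI50 = concentration required for 50% inhibition of growth.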 Calls of active or inactive are those of the source. Cut-off read from the data, not from the text of the source: active = GI50 up to about 1.1 µM and inactive = higher. Some results are limits rather than exact numbers.

As for `COc1cc(/C=N/N=C(\N)NO)c(Cl)cc1O`, the GI50 in the assay on HCC 2998 is 61.5 µM (inactive); in the assay on UACC-257, > 100 µM (inactive); in the assay with K562 it was 83.2 µM (inactive); in the assay on UO-31, 94 µM (inactive); in the assay with ACHN, 42.5 µM (inactive); with CCRF-CEM, > 100 µM (inactive). The GI50 with SF-295 is 96.2 µM (inactive); in the assay with M19-MEL, 26.6 µM (inactive); in the assay on OVCAR-4, 43.8 µM (inactive); in the assay with A549 it was 38 µM (inactive); in the assay on OVCAR-5, 46.7 µM (inactive); in the assay with NCI-H460, > 10 µM (inactive). Also, the GI50 is 35.5 µM (inactive) in the assay on NCI-H23 and 31.4 µM (inactive) in the assay with NCI-H522.
In the case of `CC1=C(/C=C/C2=CC(=C\C(=O)O)/CC(C3=C(C)CCCC3(C)C)C2)C(C)(C)CCC1` (stereo not given), the GI50 in the assay with UACC-257 is 15.6 µM (inactive); with UO-31, 10.7 µM (inactive); with ACHN, 10.4 µM (inactive); in the assay with SNB-75, 14.6 µM (inactive); with SF-295, 10.1 µM (inactive); in the assay on M19-MEL, 15.3 µM (inactive). The GI50 in the assay on OVCAR-4 was 13.7 µM (inactive); in the assay on A549, 4.8 µM (inactive); in the assay with OVCAR-5, 16.4 µM (inactive); with NCI-H460, 13.9 µM (inactive); in the assay on NCI-H23, 13.9 µM (inactive); in the assay on NCI-H522, 10.6 µM (inactive). In the assay with M14, the GI50 was 14.8 µM (inactive).
On to `CN(C)CCCNC(CC#N)CCC#N` (stereo not given), for which the GI50 in the assay on T47D, in the assay on HCC 2998, in the assay with UACC-257, with K562, with UO-31 and in the assay with ACHN was > 10 µM (inactive) throughout. The GI50 in the assay with SNB-75, in the assay with MCF7, with PC-3, in the assay on CCRF-CEM, with SF-295 and in the assay on OVCAR-4 was > 10 µM (inactive) throughout. In addition, the GI50 in the assay on A549, in the assay with MDA-MB-231, with OVCAR-5, in the assay on NCI-H460, in the assay on NCI-H23 and with NCI-H522 was > 10 µM (inactive) each time. Further, in the assay on M14, the GI50 was > 10 µM (inactive).
Take `CC(=O)O[C@]12CCCCC1C1(O)C(O)CCCCC12` (stereo not given in full): the GI50 is > 100 µM (inactive) with UACC-257; > 100 µM (inactive) in the assay with K562; > 100 µM (inactive) in the assay with UO-31; 76 µM (inactive) with ACHN; > 100 µM (inactive) in the assay on SNB-75; > 100 µM (inactive) with CCRF-CEM. Also, the GI50 in the assay with SF-295, in the assay with M19-MEL, in the assay with OVCAR-4, with A549, in the assay with NCI-H460 and in the assay with NCI-H23 was > 100 µM (inactive) each time. The GI50 in the assay on NCI-H522 and in the assay with M14 was > 100 µM (inactive) in each case.
For the compound `COc1cc(C2C(Cl)C(=O)N2n2cnc3ccccc3c2=O)ccc1O` (stereo not given), the GI50 in the assay on HCC 2998 is > 100 µM (inactive); with UACC-257, 25.4 µM (inactive); with UO-31, 56.4 µM (inactive); in the assay with ACHN it was > 100 µM (inactive); with SNB-75, 26.1 µM (inactive); in the assay on CCRF-CEM it was 80 µM (inactive). Moreover, the GI50 in the assay with SF-295 is > 100 µM (inactive); with M19-MEL, > 100 µM (inactive); in the assay with OVCAR-4 it was 94.4 µM (inactive); in the assay on A549, > 100 µM (inactive); in the assay with OVCAR-5 it was > 100 µM (inactive); with NCI-H460 it was > 100 µM (inactive). The values for the GI50 with NCI-H23, in the assay with NCI-H522 and in the assay on M14 were 39.1 µM (inactive), 34 µM (inactive) and > 100 µM (inactive), respectively.
Regarding `[O-][S+]1CSSC1`, the GI50 was 23.2 µM (inactive) in the assay with HCC 2998; 14.8 µM (inactive) with UACC-257; 3.07 µM (inactive) in the assay on K562; 18.7 µM (inactive) in the assay with UO-31; 25.1 µM (inactive) in the assay on ACHN; 27.7 µM (inactive) in the assay with SNB-75. The GI50 is 4.42 µM (inactive) in the assay on CCRF-CEM; 20.7 µM (inactive) in the assay on SF-295; 2.05 µM (inactive) in the assay on M19-MEL; 16.7 µM (inactive) in the assay on OVCAR-4; 33.9 µM (inactive) in the assay on A549; 16.8 µM (inactive) in the assay with OVCAR-5. Also, the results for the GI50 in the assay with NCI-H23, with NCI-H522 and in the assay on M14 were 28.7 µM (inactive), 11.4 µM (inactive) and 22.5 µM (inactive), respectively.
Take `Clc1ccc(CNc2nc(Cl)c3nc[nH]c3n2)cc1Cl`: the GI50 with T47D was 6.71 µM (inactive); with HCC 2998 it was 19.8 µM (inactive); in the assay on UACC-257, 13.5 µM (inactive); in the assay with K562 it was 20.3 µM (inactive); in the assay with UO-31, 11.4 µM (inactive); with ACHN, 31.2 µM (inactive). The GI50 was 32.1 µM (inactive) with SNB-75; 18 µM (inactive) in the assay with MCF7; 21.6 µM (inactive) in the assay on PC-3; 35.5 µM (inactive) in the assay on CCRF-CEM; 20 µM (inactive) in the assay with SF-295; 35.4 µM (inactive) in the assay on OVCAR-4. For the same compound, the GI50 is 23.1 µM (inactive) in the assay with A549; 30.8 µM (inactive) in the assay with MDA-MB-231; > 100 µM (inactive) in the assay with OVCAR-5; 28.2 µM (inactive) with NCI-H460; 22.4 µM (inactive) with NCI-H23; 11.3 µM (inactive) in the assay on NCI-H522. The GI50 with M14 was 20.8 µM (inactive).
Turning to `C=C1C[C@@H](O)[C@@H](Br)C(C)(C)[C@]12CCC(C)(Cl)C(Br)C2` (stereo not given in full), the GI50 was 19.5 µM (inactive) in the assay on T47D; 13.2 µM (inactive) with HCC 2998; 21.6 µM (inactive) with UACC-257; 53.5 µM (inactive) with K562; 59 µM (inactive) in the assay on UO-31; 32.8 µM (inactive) in the assay with ACHN. In addition, the GI50 in the assay on SNB-75 is 18.9 µM (inactive); in the assay with MCF7 it was 25.1 µM (inactive); with PC-3 it was 0.431 µM (active); in the assay with CCRF-CEM, 41.6 µM (inactive); in the assay on SF-295, 30.6 µM (inactive); with OVCAR-4, 21.9 µM (inactive). Further, the GI50 with A549 is 26.2 µM (inactive); in the assay on MDA-MB-231 it was 40.7 µM (inactive); in the assay on OVCAR-5, 0.736 µM (active); in the assay on NCI-H460, 27.3 µM (inactive); with NCI-H23, 21.1 µM (inactive); with NCI-H522 it was 17.5 µM (inactive). Also, in the assay with M14, the GI50 is 34 µM (inactive).
Take `C[C@H](CCC(=O)O)[C@H]1CC[C@@]2(C)[C@@H]3C(=O)C[C@H]4C(C)(C)[C@@H](O)CC[C@]4(C)[C@H]3C(=O)C[C@]12C`: the GI50 with T47D was > 100 µM (inactive); in the assay on HCC 2998, > 100 µM (inactive); with UACC-257, > 100 µM (inactive); with K562, > 100 µM (inactive); in the assay on UO-31, 13.9 µM (inactive); in the assay with ACHN, > 100 µM (inactive). Also, the GI50 in the assay on SNB-75, in the assay with MCF7, with PC-3, in the assay with CCRF-CEM, with SF-295 and in the assay on OVCAR-4 was > 100 µM (inactive) throughout. For the same compound, the GI50 was > 100 µM (inactive) in the assay on A549; > 100 µM (inactive) with MDA-MB-231; > 100 µM (inactive) with OVCAR-5; 62.7 µM (inactive) in the assay with NCI-H460; > 100 µM (inactive) in the assay on NCI-H23; > 100 µM (inactive) with NCI-H522. For the same compound, in the assay on M14, the GI50 is > 100 µM (inactive).
Take `COc1cc2c3cc1Oc1c(OC)c(OC)cc4c1[C@@H](Cc1ccc(O)c(c1)Oc1ccc(cc1)C[C@@H]3N(C)CC2)N(C)CC4.c1ccccc1`: the GI50 with HCC 2998 is 7.93 µM (inactive); in the assay on UACC-257 it was 3.36 µM (inactive); in the assay with K562, 8.69 µM (inactive); with UO-31, 15.7 µM (inactive); in the assay with ACHN, 17.3 µM (inactive); with SNB-75 it was 6.27 µM (inactive). Further, the GI50 in the assay with CCRF-CEM is 17.5 µM (inactive); in the assay with SF-295, 16.4 µM (inactive); in the assay on M19-MEL it was 13.4 µM (inactive); in the assay on A549 it was 22.5 µM (inactive); in the assay with OVCAR-5, 30.6 µM (inactive); in the assay on NCI-H460, 25.2 µM (inactive). For the same compound, the GI50 in the assay on NCI-H23 is 24.1 µM (inactive); with NCI-H522, 7.55 µM (inactive); with M14, 4.61 µM (inactive).
For `CC1(C)CC(O)C(C)(C)[C@@H](O)C1` (stereo not given in full), the GI50 with T47D, with HCC 2998, in the assay with UACC-257, in the assay on K562, in the assay with UO-31 and in the assay with ACHN was > 100 µM (inactive) throughout. Moreover, the GI50 in the assay on SNB-75, with MCF7, in the assay on PC-3, with CCRF-CEM, in the assay on SF-295 and in the assay on OVCAR-4 was > 100 µM (inactive) each time. Also, the GI50 in the assay on A549, with MDA-MB-231, with OVCAR-5, in the assay on NCI-H460, with NCI-H23 and in the assay with NCI-H522 was > 100 µM (inactive) each time. For the same compound, in the assay with M14, the GI50 was > 100 µM (inactive).
Turning to `O=C1NCN(c2ccccc2)C12CCN(CC1COc3ccccc3O1)CC2` (stereo not given) [SPIROXATRINE], the GI50 with T47D was 54 µM (inactive); in the assay with HCC 2998 it was > 100 µM (inactive); in the assay with UACC-257, 36.6 µM (inactive); with K562 it was > 100 µM (inactive); in the assay on UO-31 it was 50.7 µM (inactive); in the assay with ACHN it was 84.1 µM (inactive). Besides, the GI50 was 36.4 µM (inactive) with SNB-75; > 100 µM (inactive) in the assay with MCF7; 51.9 µM (inactive) with PC-3; > 100 µM (inactive) in the assay on CCRF-CEM; 33.8 µM (inactive) in the assay with SF-295; 33.4 µM (inactive) with OVCAR-4. In addition, the GI50 was > 100 µM (inactive) in the assay with A549; 59.7 µM (inactive) in the assay with MDA-MB-231; > 100 µM (inactive) in the assay with OVCAR-5; > 100 µM (inactive) in the assay with NCI-H460; 44.3 µM (inactive) with NCI-H23; 91.8 µM (inactive) in the assay with NCI-H522. Further, the GI50 in the assay with M14 was > 100 µM (inactive).
